{"source": "paper PMC11436104", "about": "(Toxins, 2024)", "test_system": "U87-MG cells", "experiment": "MTT metabolic activity / cell viability", "assay_type": "cell-based, human", "description": "Normal human astrocytes (NHAs; Lonza, Walkersville, MD, USA) were grown and maintained in monolayer cultures in Dulbecco’s modified Eagle’s medium (DMEM; Sigma) supplemented with 10% fetal bovine serum (Euroclone, Pero, MI, Italy), 1% penicillin/streptomycin (Euroclone), 2 mM L-glutamine (Euroclone), and 20 mM Hepes (Invitrogen, Carlsbad, CA, USA). The U87-MG human glioblastoma cells (U87-MG cells; American Type Culture Collection, Manassas, VA, USA) were grown and maintained in monolayer cultures in DMEM supplemented with 10% fetal bovine serum, 1% penicillin/streptomycin, 4 mM L-glutamine, and 1% non-essential amino acids (Sigma).\nCell viability was determined using the 3-(4,5-dimethylthiazolyl-2)-2,5-diphenyltetrazolium bromide (MTT) assay, as according to Mosmann. This assay measures the conversion of MTT to its insoluble formazan by the dehydrogenase enzymes of the intact mitochondria of living cells. […]; Nunclon; Nunc, Naperville, IL, USA) and incubated for 16 h at 37 °C for attachment. […] The amount of formazan, which is proportional to the metabolic activity of cells, was quantified spectrophotometrically at 570 nm (reference filter wavelength, 690 nm) using a microplate reader (Synergy MX; BioTek, Winooski, VT, USA). The metabolic activity of the cells was determined by comparing the optical densities of the CCP-treated cells with those of the negative control. […]", "note": "*1 amine or outer side, *2 acyl side, *3 side chain or, on linkers, in order; H or OH if unused. Where a SMILES comes first, the peptide text is derived from it. Bridges are numbered along the chain shown (N, C = ends). [ ]: non-standard residue; d: D form. Adda = CO[C@@H](Cc1ccccc1)[C@@H](C)/C=C(C)/C=C/[C@H](N[*:1])[C@H](C)C(=O)[*:2]; dAsp(3S-Me) = C[C@H](C(=O)[*:3])[C@@H](N[*:1])C(=O)[*:2]; d(γGlu) = O=C(O)[C@@H](CCC(=O)[*:2])N[*:1]; NMeDha = C=C(NC)C(=O)O", "data": [{"smiles": "C=C1C(=O)N[C@H](C)C(=O)N[C@@H](CC(C)C)C(=O)N[C@@H](C(=O)O)[C@H](C)C(=O)N[C@@H](CCCNC(=N)N)C(=O)N[C@@H](/C=C/C(C)=C/[C@H](C)[C@H](Cc2ccccc2)OC)[C@H](C)C(=O)N[C@@H](C(=O)O)CCC(=O)N1C", "note": "[MC-LR, Microcystin-LR, reference compound] (R[Adda][d(γGlu)][NMeDha][dA]L[dAsp(3S-Me)]-OH; lactam N-7)", "values": [{"measurement": "mean decrease in viability", "value": 15, "unit": "%"}, {"measurement": "viability vs control", "value": "not significantly changed"}]}]}
